Source: article PMC11995226, “Linker-Determined Folding and Hydrophobic Interactions Explain a Major Difference in PROTAC Cell Permeability” (ACS Medicinal Chemistry Letters, 2025)
≈ marks a conversion by molar mass, not a printed value. Like-named read-outs stand apart in the source and are kept apart here.

Columns and labels:
[1] = EPSA (experimental polar surface area, chromatographic); format: physicochemical
Protocol: 1. Experimental and Computational Methods […]
EPSA. EPSA retention times for 1 and 2 were determined at Sygnature Discovery. In brief, the
EPSA assay was performed on a Waters Acquity UPC2 system equipped with a PDA and a
QDa detector, using a Phenomenex Chirex (S)-VAL and (R)-NEA LC column (50 x 4.6 mm).
A gradient of MeOH, containing 20 mM ammonium formate, in CO2 was used as eluent.

[2] = design: method as in PMID 39693386; conditions: logarithm of Pe; Data reported recently; cited from earlier work
[3] = FaSSIF and FeSSIF solubility; format: physicochemical
Protocol: 1. Experimental and Computational Methods
Fasted and Fed State Simulated Intestinal Fluid (FaSSIF and FeSSIF) Solubility.
Suspensions of amorphous 1 and 2 were stirred at 37 °C in FaSSIF and FeSSIF for 24 h ± 4 h
prior to filtration and analysis of the filtrate. The solubility was determined via HPLC-MS
analysis of the filtrate using a calibration curve (external standard). […]

[4] = design: method as in PMID 39693386; conditions: Data reported recently; cited from earlier work
[5] = FaSSIF, pH 6.5, 37 °C, read-out: Solubility FaSSIF, pH 6.5
[6] = FeSSIF, pH 5.0, 37 °C, read-out: Solubility FeSSIF, pH 5.0

EPSA [1] [A^2]	solubility at 24 h [3, 5] [µM]	solubility at 24 h [3, 6] [µM]	Structure (SMILES)	PAMPA Log[Pe (cm/s)] [2]	Solubility PBS, pH 6.5 [4] [μM]
91.5	53.2 (≈ 52.7 µg/mL)	349 (≈ 346 µg/mL)	Cc1ncsc1-c1ccc(CNC(=O)[C@@H]2C[C@@H](O)CN2C(=O)[C@@H](NC(=O)CCOCCOCCOc2cnc3c(C4CCN(C(=O)c5ccc(OC(F)(F)F)cc5)CC4)ncnc3c2)C(C)(C)C)cc1 [PROTAC 2]	-5.4 log10(Pe in cm/s)	–
93.1	18.6 (≈ 18.4 µg/mL)	174 (≈ 172 µg/mL)	Cc1ncsc1-c1ccc(CNC(=O)[C@@H]2C[C@@H](O)CN2C(=O)[C@@H](NC(=O)CCCCCCCCOc2cnc3c(C4CCN(C(=O)c5ccc(OC(F)(F)F)cc5)CC4)ncnc3c2)C(C)(C)C)cc1 [PROTAC 1]	-8.3 log10(Pe in cm/s)	< 0.1
